Measured values reported in patent US8071506B2, “Synergistic herbicidal composition containing florasulam for weed control in turf” (Dow AgroSciences LLC, priority 2009, dated 2011).

Key:
Assay in all cases: Field study of weed control in established turfgrass, percent control from visual weed cover
White Clover (TRFRE) = format: in vivo, Trifolium repens; conditions: for Observed percent control: Florasulam GR 15 g ai/ha
Experimental: (§1) Field studies were conducted in established turfgrass sites containing a natural population of target broadleaf weeds. Replicated trials, containing a minimum of three replications and having individual plots ranging in size from 25 to 50 ft. sq, were initiated in the early spring with turf and weeds still in dormancy or just beginning active growth. Studies containing two components (florasulam and dithiopyr or pendimethalin) were timed to coincide with typical preemergent crabgrass (Digitaria sp.) timing at the study location. Studies containing three components (florasulam, dithiopyr or pendimethalin, Trimec (2,4-D+dicamba+MCPP-p) or Scotts Plus 2 (2,4-D+MCPP-p) were timed as previous for the florasulam and dithiopyr or pendimethalin components followed by an application of Trimec or Scotts Plus 2 at peak dandelion bloom which occurs approximately six weeks after a typical preemergent application. Granule treatments were uniformly applied to individual plots using a common hand-shaker or shaker table method. Liquid applications were applied with a CO2 backpack sprayer calibrated to deliver 40 to 100 GPA at 40 to 60 PSI. Applications were generally made in the early morning when dew was present. Natural rainfall and supplemental irrigation were used to maintain healthy turf and active weed growth throughout the study period. Weed control evaluations were made by visually assessing percent weed cover of each weed species in each plot at the initiation of the study and at each evaluation interval, converting to percent control using the following formula: (1−(B/A))*100
(§2) A=percent weed cover at study initiation
(§3) B=percent weed at a specific evaluation interval after application
(§4) Using this method, control ranges occur between 0 and 100 percent where 0 corresponds to no control and 100 corresponds to complete kill. Percent cover of each weed species was made at approximately 2, 4 and 8 weeks after treatment.
(§5) The following equation was used to calculate the expected activity of mixtures containing two active ingredients, A and B: Expected=A+B−(A×B/100)
(§6) A=observed efficacy of active component A at the same concentration as used in the mixture.
(§7) B=observed efficacy of active component B at the same concentration as used in the mixture.
(§8) The following equation was used to calculate the expected activity of mixtures containing three active ingredients, A and B and C: Expected=A+B+C−((A×B)+(A×C)+(B×C)/100)+(A×B×C/10,000)
(§9) C=observed efficacy of active component C at the same concentration as used in the mixture.

Dandelion (TAROF) = format: in vivo, Taraxacum officinale
Experimental: as §1, §2, §3, §4, §5, §6, §7, §8, §9

[1] = tested on: Buckhorn Plantain (PLALA); format: in vivo, Plantago lanceolata; conditions: 27 DAT in turf; Pendimethalin GR 2300 g ai/ha, Florasulam GR 15 g ai/ha
Experimental: as §1, with “Weed control evaluations were made by visually assessing percent weed cover of each weed species in each plot at the initiation of the study and at each evaluation interval, converting to percent control using the following formula: (1−(B/A))*100” left out

[2] = 28 DAT in turf, Dithiopyr GR 575 g ai/ha
[3] = 36 DAT in turf, Dithiopyr GR 575 g ai/ha
[4] = 62 DAT in turf, Dithiopyr GR 575 g ai/ha
[5] = 36 DAT in turf, Dithiopyr GR 575 g ai/ha, Florasulam GR 15 g ai/ha
[6] = 56 DAT in turf, Dithiopyr GR 575 g ai/ha, Florasulam GR 15 g ai/ha
[7] = 57 DAT in turf, Dithiopyr GR 575 g ai/ha, Florasulam GR 15 g ai/ha, Trimec EC 4 Pt/A
[8] = 58 DAT in turf, Dithiopyr 2EW 575 g ai/ha, Florasulam SC 15 g ai/ha
[9] = 59 DAT in turf, Dithiopyr GR 575 g ai/ha, Florasulam GR 15 g ai/ha, Trimec EC 4 Pt/A
[10] = 64 DAT in turf, Dithiopyr GR 575 g ai/ha, Florasulam GR 15 g ai/ha, Trimec EC 4 Pt/A
[11] = 91 DAT in turf, Dithiopyr GR 575 g ai/ha, Florasulam GR 15 g ai/ha
[12] = 55 DAT in turf, Pendimethalin GR 2300 g ai/ha, Scotts Plus 2 125 Lb/A
[13] = 60 DAT in turf, Pendimethalin GR 2300 g ai/ha, Florasulam GR 15 g ai/ha, Scotts Plus 2 125 Lb/A
[14] = applications made at the preemergent herbicide application timing

Structure (SMILES): CSC(=O)c1c(C(F)F)nc(C(F)(F)F)c(C(=O)SC)c1CC(C)C [Dithiopyr, S,S′-dimethyl 2-(difluoromethyl)-4-(2-methylpropyl)-6-(trifluoromethyl)-3,5-pyridinedicarbothioate]
- Observed percent control (White Clover (TRFRE); [2]): 0%
- Observed percent control (White Clover (TRFRE); [3]): 0%
- Observed percent control (White Clover (TRFRE); [4]): 0%
- Observed percent control (Dandelion (TAROF); [5]): 0%
- Observed percent control (Dandelion (TAROF); [6]): 29%
- Observed percent control (Dandelion (TAROF); [7]): 21%
- Observed percent control (Dandelion (TAROF); [8]): 21.7%
- Observed percent control (Dandelion (TAROF); [9]): 27%
- Observed percent control (Dandelion (TAROF); [10]): 0%
- Observed percent control (Dandelion (TAROF); [11]): 19%

Structure (SMILES): CCC(CC)Nc1c([N+](=O)[O-])cc(C)c(C)c1[N+](=O)[O-] [Pendimethalin, N-(1-ethylpropyl)-3,4-dimethyl-2,6-dinitrobenzenamine]
- Observed percent control (White Clover (TRFRE); [12]): 0%
- Observed percent control (Dandelion (TAROF); [13]): 21%
- Observed percent control [1]: 0%

Structure (SMILES): COc1ncc(F)c2nc(S(=O)(=O)Nc3c(F)cccc3F)nn12 [Florasulam, N-(2,6-difluorophenyl)-8-fluoro-5-methoxyl[1,2,4]triazolo[1,5-c]pyrimidine-2-sulfonamide]
- Observed percent control (White Clover (TRFRE); [2]): 86.8%
- Observed percent control (White Clover (TRFRE); [3]): 73%
- Observed percent control (White Clover (TRFRE); [12]): 62.5%
- Observed percent control (White Clover (TRFRE); [4]): 0%
- Control of white clover, in words (White Clover (TRFRE); [14]): effectively controls
- Observed percent control (Dandelion (TAROF); [5]): 20%
- Observed percent control (Dandelion (TAROF); [6]): 0%
- Observed percent control (Dandelion (TAROF); [7]): 31%
- Observed percent control (Dandelion (TAROF); [8]): 70%
- Observed percent control (Dandelion (TAROF); [9]): 0%
- Observed percent control (Dandelion (TAROF); [13]): 20.6%
- Observed percent control (Dandelion (TAROF); [10]): 30%
- Observed percent control (Dandelion (TAROF); [11]): 18%
- Control of dandelion, in words (Dandelion (TAROF); [14]): effectively controls
- Observed percent control [1]: 26.7%
